The values below come from article PMC10558427, “A Theobromine Derivative with Anticancer Properties Targeting VEGFR‐2: Semisynthesis, in silico and in vitro Studies” (ChemistryOpen, 2023).

The target of the assay is T1, VEGFR‐2 (Homo sapiens, UniProt P35968).
T1 construct: gene KDR
In words: in vitro VEGFR-2 inhibition assay (Human VEGFR ELISA kit). The format is biochemical.

T1 sequence (P35968 20-1356): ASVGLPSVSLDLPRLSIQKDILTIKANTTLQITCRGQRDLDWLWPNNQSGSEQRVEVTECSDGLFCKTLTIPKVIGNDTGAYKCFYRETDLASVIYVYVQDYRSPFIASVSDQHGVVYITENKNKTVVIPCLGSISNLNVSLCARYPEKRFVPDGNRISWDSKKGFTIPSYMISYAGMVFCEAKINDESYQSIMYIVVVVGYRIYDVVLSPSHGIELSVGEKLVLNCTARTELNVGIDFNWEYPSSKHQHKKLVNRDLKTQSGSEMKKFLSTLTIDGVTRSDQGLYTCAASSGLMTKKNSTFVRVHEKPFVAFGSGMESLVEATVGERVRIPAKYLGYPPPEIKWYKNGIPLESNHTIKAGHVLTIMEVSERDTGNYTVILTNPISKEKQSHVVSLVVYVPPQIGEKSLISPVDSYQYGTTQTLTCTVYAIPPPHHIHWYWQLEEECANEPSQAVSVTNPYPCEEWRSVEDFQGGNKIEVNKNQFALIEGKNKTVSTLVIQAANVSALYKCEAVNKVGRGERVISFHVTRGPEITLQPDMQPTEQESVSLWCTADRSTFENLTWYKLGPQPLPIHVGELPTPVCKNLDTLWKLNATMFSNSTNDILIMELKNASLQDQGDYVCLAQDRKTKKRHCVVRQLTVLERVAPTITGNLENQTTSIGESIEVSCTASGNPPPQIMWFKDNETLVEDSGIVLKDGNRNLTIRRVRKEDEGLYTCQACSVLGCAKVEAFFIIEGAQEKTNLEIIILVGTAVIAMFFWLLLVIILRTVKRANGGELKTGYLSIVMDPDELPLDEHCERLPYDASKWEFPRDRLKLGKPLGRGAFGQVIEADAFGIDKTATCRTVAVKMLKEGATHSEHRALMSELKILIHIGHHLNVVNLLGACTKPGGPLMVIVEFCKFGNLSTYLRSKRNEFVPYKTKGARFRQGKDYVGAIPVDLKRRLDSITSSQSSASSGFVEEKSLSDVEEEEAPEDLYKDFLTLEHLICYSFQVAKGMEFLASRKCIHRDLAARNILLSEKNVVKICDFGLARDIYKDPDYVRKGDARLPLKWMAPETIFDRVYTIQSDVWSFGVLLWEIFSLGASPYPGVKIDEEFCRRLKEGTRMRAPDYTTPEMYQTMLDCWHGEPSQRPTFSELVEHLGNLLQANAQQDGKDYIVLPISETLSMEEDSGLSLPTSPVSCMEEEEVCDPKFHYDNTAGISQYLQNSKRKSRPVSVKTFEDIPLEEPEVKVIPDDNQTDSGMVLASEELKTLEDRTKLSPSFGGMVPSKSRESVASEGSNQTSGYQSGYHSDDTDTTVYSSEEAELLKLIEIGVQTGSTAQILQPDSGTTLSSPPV

With `Cn1cnc2c1c(=O)n(CC(=O)Nc1ccc(C(=O)Nc3ccc(F)cc3)cc1)c(=O)n2C` [T-1-AFPB, 4‐(2‐(3,7‐Dimethyl‐2,6‐dioxo‐2,3,6,7‐tetrahydro‐1H‐purin‐1‐yl)acetamido)‐N‐(4‐fluorophenyl)benzamide], half-maximal inhibition (IC50) required 69 ± 3 nM.
